According to patent publication US20230085307A1, “PYRIDAZINONE COMPOUND AND HERBICIDE” (NISSAN CHEMICAL CORPORATION, priority 2019, published 2023):

Columns and labels:
[1] = test system: barnyard grass; assay: Test Example 3: herbicidal effect by foliage application, Wagner pot (Table 18, symbol H); assay type: in vivo, barnyard grass (Echinochloa crus-galli); conditions: 320 g/ha
Outline: (§1)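 Plants were sown in alluvial soil held under 0.1–0.5 cm standing water and grown 14 days in a greenhouse at 25–30 °C. An emulsifiable formulation, water-diluted to the set dose, was then sprayed onto the foliage, and effects were scored three weeks later using previously defined criteria.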

[2] = test system: Chinese sprangletop; assay: Test Example 3: herbicidal effect by foliage application, Wagner pot (Table 18, symbol D); assay type: in vivo, chinese sprangletop (Leptochloa chinensis); conditions: 320 g/ha
Outline: as §1

[3] = test system: rice flat sedge; assay: Test Example 3: herbicidal effect by foliage application, Wagner pot (Table 18, symbol E); assay type: in vivo, rice flat sedge (Cyperus iria); conditions: 320 g/ha
Outline: as §1

[4] = test system: southern crabgrass; assay: Test Example 4: herbicidal effect by soil treatment (Table 19, symbol F); assay type: in vivo, southern crabgrass (Digitaria ciliaris); conditions: amount of applied herbicide 320 g/ha
Outline: (§2)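 Emulsion of test compound, water-diluted to predetermined amount, sprayed on soil after sowing (seed depth ~1.5 cm, sterilized diluvial soil). Greenhouse, 25–30° C. Effect graded at three weeks post-spray.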

[5] = test system: green foxtail; assay: Test Example 4: herbicidal effect by soil treatment (Table 19, symbol G); assay type: in vivo, green foxtail (Setaria viridis); conditions: amount of applied herbicide 320 g/ha
Outline: as §2

[6] = test system: barnyard grass; assay: Test Example 4: herbicidal effect by soil treatment (Table 19, symbol H); assay type: in vivo, barnyard grass (Echinochloa crus-galli); conditions: amount of applied herbicide 320 g/ha
Outline: as §2

[7] = test system: wild oat; assay: Test Example 4: herbicidal effect by soil treatment (Table 19, symbol I); assay type: in vivo, wild oat (Avena fatua); conditions: amount of applied herbicide 320 g/ha
Outline: as §2

[8] = test system: blackgrass; assay: Test Example 4: herbicidal effect by soil treatment (Table 19, symbol J); assay type: in vivo, blackgrass (Alopecurus myosuroides); conditions: amount of applied herbicide 320 g/ha
Outline: as §2

[9] = test system: Italian ryegrass; assay: Test Example 4: herbicidal effect by soil treatment (Table 19, symbol K); assay type: in vivo, Italian ryegrass (Lolium multiflorum); conditions: amount of applied herbicide 320 g/ha
Outline: as §2

[10] = test system: windgrass; assay: Test Example 4: herbicidal effect by soil treatment (Table 19, symbol L); assay type: in vivo, windgrass (Apera spica-venti); conditions: amount of applied herbicide 320 g/ha
Outline: as §2

[11] = test system: velvetleaf; assay: Test Example 4: herbicidal effect by soil treatment (Table 19, symbol M); assay type: in vivo, velvetleaf (Abutilon theophrasti); conditions: amount of applied herbicide 320 g/ha
Outline: as §2

[12] = test system: redroot pigweed; assay: Test Example 4: herbicidal effect by soil treatment (Table 19, symbol N); assay type: in vivo, redroot pigweed (Amaranthus retroflexus); conditions: amount of applied herbicide 320 g/ha
Outline: as §2

[13] = test system: lambsquarters; assay: Test Example 4: herbicidal effect by soil treatment (Table 19, symbol O); assay type: in vivo, lambsquarters (Chenopodium album); conditions: amount of applied herbicide 320 g/ha
Outline: as §2

[14] = test system: chickweed; assay: Test Example 4: herbicidal effect by soil treatment (Table 19, symbol P); assay type: in vivo, common chickweed (Stellaria media); conditions: amount of applied herbicide 320 g/ha
Outline: as §2

[15] = test system: persian speedwell; assay: Test Example 4: herbicidal effect by soil treatment (Table 19, symbol R); assay type: in vivo, Persian speedwell (Veronica persica); conditions: amount of applied herbicide 320 g/ha
Outline: as §2

[16] = test system: southern crabgrass; assay: Test Example 5: herbicidal effect by foliage application, plastic box (Table 20, symbol F); assay type: in vivo, southern crabgrass (Digitaria ciliaris); conditions: 320 g/ha, foliage application after 14-day growth, evaluated three weeks after application
Outline: (§3)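 Post-emergence foliar test in sterilized diluvial soil. Compound applied as water-diluted emulsion at a predetermined rate to 14-day-old plants; evaluation at three weeks.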

[17] = test system: green foxtail; assay: Test Example 5: herbicidal effect by foliage application, plastic box (Table 20, symbol G); assay type: in vivo, green foxtail (Setaria viridis); conditions: 320 g/ha, foliage application after 14-day growth, evaluated three weeks after application
Outline: as §3

[18] = test system: barnyard grass; assay: Test Example 5: herbicidal effect by foliage application, plastic box (Table 20, symbol H); assay type: in vivo, barnyard grass (Echinochloa crus-galli); conditions: 320 g/ha, foliage application after 14-day growth, evaluated three weeks after application
Outline: as §3

[19] = test system: wild oat; assay: Test Example 5: herbicidal effect by foliage application, plastic box (Table 20, symbol I); assay type: in vivo, wild oat (Avena fatua); conditions: 320 g/ha, foliage application after 14-day growth, evaluated three weeks after application
Outline: as §3

[20] = test system: blackgrass; assay: Test Example 5: herbicidal effect by foliage application, plastic box (Table 20, symbol J); assay type: in vivo, blackgrass (Alopecurus myosuroides); conditions: 320 g/ha, foliage application after 14-day growth, evaluated three weeks after application
Outline: as §3

[21] = test system: Italian ryegrass; assay: Test Example 5: herbicidal effect by foliage application, plastic box (Table 20, symbol K); assay type: in vivo, Italian ryegrass (Lolium multiflorum); conditions: 320 g/ha, foliage application after 14-day growth, evaluated three weeks after application
Outline: as §3

[22] = test system: windgrass; assay: Test Example 5: herbicidal effect by foliage application, plastic box (Table 20, symbol L); assay type: in vivo, windgrass (Apera spica-venti); conditions: 320 g/ha, foliage application after 14-day growth, evaluated three weeks after application
Outline: as §3

[23] = test system: velvetleaf; assay: Test Example 5: herbicidal effect by foliage application, plastic box (Table 20, symbol M); assay type: in vivo, velvetleaf (Abutilon theophrasti); conditions: 320 g/ha, foliage application after 14-day growth, evaluated three weeks after application
Outline: as §3

[24] = test system: redroot pigweed; assay: Test Example 5: herbicidal effect by foliage application, plastic box (Table 20, symbol N); assay type: in vivo, redroot pigweed (Amaranthus retroflexus); conditions: 320 g/ha, foliage application after 14-day growth, evaluated three weeks after application
Outline: as §3

[25] = test system: lambsquarters; assay: Test Example 5: herbicidal effect by foliage application, plastic box (Table 20, symbol O); assay type: in vivo, lambsquarters (Chenopodium album); conditions: 320 g/ha, foliage application after 14-day growth, evaluated three weeks after application
Outline: as §3

[26] = test system: chickweed; assay: Test Example 5: herbicidal effect by foliage application, plastic box (Table 20, symbol P); assay type: in vivo, common chickweed (Stellaria media); conditions: 320 g/ha, foliage application after 14-day growth, evaluated three weeks after application
Outline: as §3

[27] = test system: persian speedwell; assay: Test Example 5: herbicidal effect by foliage application, plastic box (Table 20, symbol R); assay type: in vivo, Persian speedwell (Veronica persica); conditions: 320 g/ha, foliage application after 14-day growth, evaluated three weeks after application
Outline: as §3

Structure (SMILES) | herbicidal effect on barnyard grass (H) [1] | herbicidal effect on Chinese sprangletop (D) [2] | herbicidal effect on rice flat sedge (E) [3] | Herbicidal effect by soil treatment, F: southern crabgrass [4] | Herbicidal effect by soil treatment, G: green foxtail [5] | Herbicidal effect by soil treatment, H: barnyard grass [6] | Herbicidal effect by soil treatment, I: wild oat [7] | Herbicidal effect by soil treatment, J: blackgrass [8] | Herbicidal effect by soil treatment, K: Italian ryegrass [9] | Herbicidal effect by soil treatment, L: windgrass [10] | Herbicidal effect by soil treatment, M: velvetleaf [11] | Herbicidal effect by soil treatment, N: redroot pigweed [12] | Herbicidal effect by soil treatment, O: lambsquarters [13] | Herbicidal effect by soil treatment, P: chickweed [14] | Herbicidal effect by soil treatment, R: persian speedwell [15] | herbicidal effect on F: southern crabgrass (evaluation grade 0-5) [16] | herbicidal effect on G: green foxtail (evaluation grade 0-5) [17] | herbicidal effect on H: barnyard grass (evaluation grade 0-5) [18] | herbicidal effect on I: wild oat (evaluation grade 0-5) [19] | herbicidal effect on J: blackgrass (evaluation grade 0-5) [20] | other results
CCCC(=O)Oc1c(C)nn(C)c(=O)c1-c1c(-c2ccc(F)cc2)sc2c(F)cccc12 [4-002] | 5 (Herbicidal rate of 90% or more (almost completely withered)) | 2 (Herbicidal rate of 20% or more and less than 40%) | 5 (Herbicidal rate of 90% or more (almost completely withered)) | 0 (Herbicidal rate of 5% or less (almost no effect)) | 2 (Herbicidal rate of 20% or more and less than 40%) | 4 (Herbicidal rate of 70% or more and less than 90%) | 0 (Herbicidal rate of 5% or less (almost no effect)) | 0 (Herbicidal rate of 5% or less (almost no effect)) | 0 (Herbicidal rate of 5% or less (almost no effect)) | 0 (Herbicidal rate of 5% or less (almost no effect)) | 2 (Herbicidal rate of 20% or more and less than 40%) | 3 (Herbicidal rate of 40% or more and less than 70%) | 3 (Herbicidal rate of 40% or more and less than 70%) | 0 (Herbicidal rate of 5% or less (almost no effect)) | 0 (Herbicidal rate of 5% or less (almost no effect)) | 0 (Herbicidal rate of 5% or less (almost no effect)) | 4 (Herbicidal rate of 70% or more and less than 90%) | 4 (Herbicidal rate of 70% or more and less than 90%) | 0 (Herbicidal rate of 5% or less (almost no effect)) | 1 (Herbicidal rate of 5% or more and less than 20%) | herbicidal effect on K: Italian ryegrass (evaluation grade 0-5) [21]: 3 (Herbicidal rate of 40% or more and less than 70%); herbicidal effect on L: windgrass (evaluation grade 0-5) [22]: 0 (Herbicidal rate of 5% or less (almost no effect)); herbicidal effect on M: velvetleaf (evaluation grade 0-5) [23]: 5 (Herbicidal rate of 90% or more (almost completely withered)); herbicidal effect on N: redroot pigweed (evaluation grade 0-5) [24]: 5 (Herbicidal rate of 90% or more (almost completely withered)); herbicidal effect on O: lambsquarters (evaluation grade 0-5) [25]: 3 (Herbicidal rate of 40% or more and less than 70%); herbicidal effect on P: chickweed (evaluation grade 0-5) [26]: 5 (Herbicidal rate of 90% or more (almost completely withered)); herbicidal effect on R: persian speedwell (evaluation grade 0-5) [27]: 4 (Herbicidal rate of 70% or more and less than 90%)
COc1cc(F)ccc1-c1sc2c(F)cccc2c1-c1c(O)c(C)nn(C)c1=O [4-011] | 4 (Herbicidal rate of 70% or more and less than 90%) | 3 (Herbicidal rate of 40% or more and less than 70%) | 5 (Herbicidal rate of 90% or more (almost completely withered)) | 0 (Herbicidal rate of 5% or less (almost no effect)) | 3 (Herbicidal rate of 40% or more and less than 70%) | 3 (Herbicidal rate of 40% or more and less than 70%) | 0 (Herbicidal rate of 5% or less (almost no effect)) | 0 (Herbicidal rate of 5% or less (almost no effect)) | 0 (Herbicidal rate of 5% or less (almost no effect)) | 0 (Herbicidal rate of 5% or less (almost no effect)) | 0 (Herbicidal rate of 5% or less (almost no effect)) | 2 (Herbicidal rate of 20% or more and less than 40%) | 3 (Herbicidal rate of 40% or more and less than 70%) | 3 (Herbicidal rate of 40% or more and less than 70%) | 0 (Herbicidal rate of 5% or less (almost no effect)) | 2 (Herbicidal rate of 20% or more and less than 40%) | 5 (Herbicidal rate of 90% or more (almost completely withered)) | 3 (Herbicidal rate of 40% or more and less than 70%) | 0 (Herbicidal rate of 5% or less (almost no effect)) | 3 (Herbicidal rate of 40% or more and less than 70%) | herbicidal effect on K: Italian ryegrass (evaluation grade 0-5) [21]: 3 (Herbicidal rate of 40% or more and less than 70%); herbicidal effect on L: windgrass (evaluation grade 0-5) [22]: 3 (Herbicidal rate of 40% or more and less than 70%); herbicidal effect on M: velvetleaf (evaluation grade 0-5) [23]: 3 (Herbicidal rate of 40% or more and less than 70%); herbicidal effect on N: redroot pigweed (evaluation grade 0-5) [24]: 3 (Herbicidal rate of 40% or more and less than 70%); herbicidal effect on O: lambsquarters (evaluation grade 0-5) [25]: 3 (Herbicidal rate of 40% or more and less than 70%); herbicidal effect on P: chickweed (evaluation grade 0-5) [26]: 5 (Herbicidal rate of 90% or more (almost completely withered)); herbicidal effect on R: persian speedwell (evaluation grade 0-5) [27]: 5 (Herbicidal rate of 90% or more (almost completely withered))
